Measured values published in patent US9302012B2, “Anti-bacterial siderophore-aminopenicillin conjugates” (University of Notre Dame Du Lac, priority 2012, dated 2016).
≈ marks a conversion by molar mass, not a printed value. Like-named read-outs stand apart in the source and are kept apart here.

Columns and labels:
P. aeruginosa Pa6 [1] = experiment: Agar diffusion antibacterial susceptibility assay; type: cell-based, Pseudomonas aeruginosa; conditions: for Diameter of growth inhibition zones: −Fe agar; for activity against clinical isolate Pa6 (agar diffusion, in words): even under iron-deficient conditions
Procedure: (§1) All liquids and media were sterilized by autoclaving (121° C., 15 min) before use. All aqueous solutions and media were prepared using distilled, deionized, and filtered water (Millipore Milli-Q Advantage A10 Water Purification System). Luria broth (LB) was purchased from VWR. Mueller-Hinton No. 2 broth (MHII broth; cation adjusted) was purchased from Sigma-Aldrich (St. Louis, Mo.). Iron-deficient (—Fe) MHII broth was prepared by adding 0.8 mL of a 1 mg/mL sterile aq. solution of 2,2′-bipyridine to 49.2 mL of MHII broth. Iron-rich (+Fe) MHII broth was prepared by adding 0.8 mL of a 1 mg/mL sterile aq. solution of FeCl3 to 49.2 mL of MHII broth. Mueller-Hinton No. 2 agar (MHII agar; HiMedia Laboratories) was purchased from VWR. Iron-deficient (−Fe) MHII agar was prepared by adding 0.5 mL of a 1 mg/mL sterile aq. solution of 2,2′-bipyridine to 34 mL of melted MHII agar with gentle mixing. Iron-rich (+Fe) MHII agar was prepared by adding 0.5 mL of a 1 mg/mL sterile aq. solution of FeCl3 to 34 mL of melted MHII agar with gentle mixing. See also Wencewicz, T. A. Dissertation, University of Notre Dame, Notre Dame, Ind., 2011, for relevant techniques.
(§2) Antibacterial Susceptibility Testing by the Agar Diffusion Assay.
(§3) Antibacterial activity of the compounds was determined by a modified Kirby-Bauer agar diffusion assay. Overnight cultures of test organisms were grown in LB broth for 18-24 h and standard suspensions of […] were prepared in saline solution (0.9% NaCl) according to a 0.5 BaSO4 McFarland Standard. This standardized suspension (0.1 mL) was added to 34 mL of sterile, melted agar (−Fe or +Fe) tempered to 47-50° C. After gentle mixing, the inoculated agar media was poured into a sterile plastic petri dish (145 mm×20 mm) and allowed to solidify near a flame with the lid ajar for about 30 min. Wells of 9.0 mm diameter were cut from the petri dish agar and filled with exactly 50 μL of the test sample solution. The petri dish was incubated at 37° C. for 18-24 h and the inhibition zone diameters were measured (mm) with an electronic caliper after 24 h.

[2] = test system: P. aeruginosa K648 (pvd−, pch−); experiment: Agar diffusion antibacterial susceptibility assay; type: cell-based, Pseudomonas aeruginosa; conditions: for zone of inhibition at 200 µM / zone of inhibition at 100 µM: Pseudomonas aeruginosa, 24 h, read-out: Diameter of growth inhibition zones, P. aeruginosa K648 (pvd−, pch−), 37° C., 24 hours; for zone of inhibition at 200 µM: 50 μL of 0.2 mM solution; for activity against K648 strain (agar diffusion, in words): iron-rich medium; for zone of inhibition at 100 µM: 50 μL of 0.1 mM solution
Procedure: as §1, §2, §3

P. aeruginosa KW799/wt = experiment: Agar diffusion antibacterial susceptibility assay; type: cell-based, Pseudomonas aeruginosa; conditions: 37° C.; for zone of inhibition at 200 µM / zone of inhibition at 100 µM: Pseudomonas aeruginosa, KW799/WT, 24 h, read-out: Diameter of growth inhibition zones; for zone of inhibition at 200 µM / Diameter of growth inhibition zones: 50 μL of 0.2 mM solution; for zone of inhibition at 100 µM: 50 μL of 0.1 mM solution; for Diameter of growth inhibition zones: 24 hours
Procedure: as §1, §2, §3

[3] = test system: E. coli H1876 (fepA−, cir−, fiu−); experiment: Agar diffusion antibacterial susceptibility assay; type: cell-based, Escherichia coli; conditions: for Diameter of growth inhibition zones: E. coli H1876 (fepA−, cir−, fiu−), −Fe agar, 37° C., 24 hours; for zone of inhibition at 200 µM: Escherichia coli, 24 h, read-out: Diameter of growth inhibition zones
Procedure: as §1, §2, §3

P. aeruginosa Pa6 [4] = experiment: MIC90 by broth microdilution assay; type: cell-based, Pseudomonas aeruginosa; conditions: for MIC90: P. aeruginosa Pa6, 37° C., 20 h; for activity against Pa6 (MIC assay, in words): exception among wild type strains
Procedure: ^aMIC90 values (μM) were determined using the broth microdilution method in Mueller-Hinton broth No. 2 (MHII) with visual end point analysis according to the CLSI guidelines (Methods for Dilution Antimicrobial Susceptibility Tests for Bacteria that Grow Aerobically, 8th ed. (Villanova, Pa., USA), Clinical and Laboratory Standards Institute (CLSI), 2009, approved standard document M07-A7). ^bEach compound was tested in triplicate.
as §1
Determination of MIC90 Values by the Broth Microdilution Assay.
Antibacterial activity of the compounds was determined by measuring their minimum inhibitory concentrations (MIC90's) using the broth microdilution method according to the Clinical and Laboratory Standards Institute (CLSI, formerly the NCCLS) guidelines. Each well of a 96-well microtiter plate was filled with 50 μL of sterile broth media (−Fe or +Fe). Each test compound was dissolved in DMSO making a 20 mM solution, and then diluted with sterile broth media (−Fe or +Fe) to 400 or 800 μM. Exactly 50 μL of the compound solution was added to the first well of the microtiter plate and 2-fold serial dilutions were made down each row of the plate. Exactly 50 μL of bacterial inoculum (5×10^5 CFU/mL in broth media) was then added to each well giving a total volume of 100 μL/well. The plate was incubated at 37° C. for 20 h and then each well was examined for bacterial growth. The MIC90 was recorded as the lowest compound concentration (μM) required to inhibit 90% of bacterial growth as judged by turbidity of the culture media relative to a row of wells filled with a DMSO standard.

[5] = test system: various wild type strains of P. aeruginosa; experiment: MIC by broth microdilution (text summary over strains); type: cell-based; conditions: Pseudomonas aeruginosa, iron-deficient medium, read-out: MICs against various wild type strains of P. aeruginosa
Procedure: as §1

[6] = P. aeruginosa Pa6, 50 μL of 0.2 mM solution, 37° C., 24 hours
[7] = Pseudomonas aeruginosa, P. aeruginosa Pa6, +Fe agar, 50 μL of 0.2 mM solution, 37° C., 24 hours, read-out: Diameter of growth inhibition zones
[8] = −Fe (iron-deficient) MHII broth
[9] = Pseudomonas aeruginosa, +Fe (iron-rich) MHII broth

Structure (SMILES)	Diameter of growth inhibition zones (P. aeruginosa Pa6 [1]; [6]) [mm]	zone of inhibition at 200 µM (P. aeruginosa Pa6 [1]; [7]) [mm]	activity against clinical isolate Pa6 (agar diffusion, in words) (P. aeruginosa Pa6 [1])	zone of inhibition at 200 µM ([2]; +Fe agar) [mm]	zone of inhibition at 200 µM ([2]; −Fe agar) [mm]	activity against K648 strain (agar diffusion, in words) [2]	zone of inhibition at 200 µM (P. aeruginosa KW799/wt; +Fe agar) [mm]	Diameter of growth inhibition zones ([3]; 50 μL of 0.2 mM solution)	MIC90 (P. aeruginosa Pa6 [4]; [8]) [µM]	MIC90 (P. aeruginosa Pa6 [4]; [9]) [µM]	activity against Pa6 (MIC assay, in words) (P. aeruginosa Pa6 [4])	MIC [5] [µM]	Diameter of growth inhibition zones (P. aeruginosa KW799/wt; −Fe agar) [p]	zone of inhibition at 200 µM [3] [mm]	other results
CC(=O)Oc1cccc(C(=O)NCCCC(CCCNC(=O)c2cccc(OC(C)=O)c2OC(C)=O)(CCCNC(=O)c2cccc(OC(C)=O)c2OC(C)=O)NC(=O)CCC(=O)NC(C(=O)NC2C(=O)N3C2SC(C)(C)C3C(=O)O)c2ccc(O)cc2)c1OC(C)=O (centres unmarked) [Compound 11]	0	0	no activity	0	17	inactive	25	14p	>200	> 200	inactive	0.05 to 0.39 (≈ 0.0655 to 0.511 µg/mL)			zone of inhibition at 200 µM (P. aeruginosa KW799/wt; −Fe agar): 26 mm
CC(=O)Oc1cccc(C(=O)NCCCC(CCCNC(=O)c2cccc(OC(C)=O)c2OC(C)=O)(CCCNC(=O)c2cccc(OC(C)=O)c2OC(C)=O)NC(=O)CCC(=O)NC(C(=O)NC2C(=O)N3C2SC(C)(C)C3C(=O)O)c2ccccc2)c1OC(C)=O (centres unmarked) [Compound 10]			no activity			inactive			>200	> 200	inactive	0.05 to 0.39 (≈ 0.0647 to 0.505 µg/mL)			Diameter of growth inhibition zones (P. aeruginosa Pa6 [1]; P. aeruginosa Pa6, 50 μL of 0.1 mM solution, 37° C., 24 hours): 0 mm; zone of inhibition at 100 µM (P. aeruginosa Pa6 [1]; Pseudomonas aeruginosa, P. aeruginosa Pa6, +Fe agar, 50 μL of 0.1 mM solution, 37° C., 24 hours, read-out: Diameter of growth inhibition zones): 0 mm; zone of inhibition at 100 µM ([2]; +Fe agar): 0 mm; zone of inhibition at 100 µM ([2]; −Fe agar): 15 mm; zone of inhibition at 100 µM (P. aeruginosa KW799/wt; +Fe agar): 20 mm; zone of inhibition at 100 µM (P. aeruginosa KW799/wt; −Fe agar): 24 mm; Diameter of growth inhibition zones ([3]; 50 μL of 0.1 mM solution): 0 mm
CC1(C)S[C@@H]2[C@H](NC(=O)[C@H](N)c3ccc(O)cc3)C(=O)N2[C@H]1C(=O)O [Amoxicillin, reference compound]	0	0		0	0		27	0 mm	>200	> 200		> 100	18	0	
CC1(C)S[C@@H]2[C@H](NC(=O)[C@H](N)c3ccccc3)C(=O)N2[C@H]1C(=O)O [Ampicillin, reference compound]	0	0		0	0			0 mm	>200	> 200		> 100	23	0	
